Structures can show the parent of a compound that is named as a salt.
Test system: patient diagnosed with IDDM
Test: treatment of a IDDM patient, blood IDDM markers over time
Assay type: in vivo, human
Parameters: Insulin Auto Ab (<0.4) / IA2 Ab (Islet cell Ab Screen) (<0.8) / Glucose / Insulin (2-19.6) / HgbA1C / GAD-65 (<5): unit not given here
Experimental: A patient diagnosed with IDDM was treated with 8 units of exogenous long-acting insulin per day (administered in the evening) and 1 unit of short-acting insulin per 6 grams of carbohydrate food intake (administered before each meal).
Specific stimulation high-carb diet was introduced occasionally to monitor the patient's pancreatic ability to respond to the glycemic demands.
Each IVIG dose was administered in one continuous infusion session. From week 16 to week 42, the patient was also treated with alpha one antitrypsin.
Throughout the patient's treatment, the patient's blood was drawn at the time points indicated in Tables 1-2 below, and analyzed by established testing laboratories with respect to standard IDDM blood parameters (see Tables 1-2, top row of each table listing the markers assayed; the numerical values in parenthesis after some of the markers indicate normal reference levels).
The patient was dosed at 750 mg intravenously on weeks 87, 88, 89 and 90.
Tables 1 and 2 describe the same treatment but include data points with respect to different markers tested.

[1] = week 19, 8 mg BID, also alpha one antitrypsin
[2] = week 22, 8 mg BID, also alpha one antitrypsin
[3] = week 25, 8 mg BID, also alpha one antitrypsin
[4] = week 26, 16 mg BID, also alpha one antitrypsin
[5] = week 29, 16 mg BID, also alpha one antitrypsin
[6] = week 30, 16 mg BID, also alpha one antitrypsin
[7] = week 36, 16 mg BID, also alpha one antitrypsin
[8] = week 47, 16 mg BID, IVIG 2, 1, 1 mg/Kg in week 44
[9] = week 50, 16 mg BID, IVIG weeks 44, 47.5
[10] = week 53, 16 mg BID, IVIG weeks 44, 47.5, 50.5
[11] = week 57, 16 mg BID, IVIG weeks 44-54
[12] = week 61, 16 mg BID, IVIG weeks 44-54
[13] = week 66, 16 mg BID, IVIG weeks 44-54
[14] = week 70, 16 mg BID, IVIG weeks 44-54
[15] = week 75, 16 mg BID, IVIG weeks 44-54
[16] = week 79, 5 mg QAM & 10 mg QHS, IVIG weeks 44-54
[17] = week 82.5, 10 mg BID, IVIG weeks 44-54
[18] = week 87.5, 10 mg BID, IVIG 2, 1, 1 gm/Kg week 86, Rituxan 750 mg iv week 87
[19] = week 91.25, 10 mg BID, IVIG weeks 86, 89, Rituxan 750 mg iv weeks 87-90
[20] = week 92.25, 10 mg BID, IVIG weeks 86, 89, Rituxan 750 mg iv weeks 87-90
[21] = week 99.25, 10 mg BID, IVIG weeks 86, 89, Rituxan 750 mg iv weeks 87-90

Compound: C[C@@H]1CCN(C(=O)CC#N)C[C@@H]1N(C)c1ncnc2[nH]ccc12 [Tofacitinib]
- overall weight and muscle mass (about 10 months post initiation of tofacitinib treatment): gained overall weight and muscle mass
- auto-antibody blood titers (about 10 months post initiation, tofacitinib before IVIG): no further change
- combination effect of tofacitinib treatment and IVIG treatment (human, in vivo): synergistic effect
- need for short-acting insulin (starting three days post initiation, 5 mg twice-daily (free base)): did not receive any short-acting insulin
- need for exogenous insulin (starting three weeks post initiation, 5 mg twice-daily (free base)): did not receive any exogenous insulin
- pancreatic islet-cell auto-antibodies and anti-insulin auto-antibodies (upon treatment with tofacitinib (Table 1)): reduction

Compound: C[C@@H]1CCN(C(=O)CC#N)C[C@@H]1N(C)c1ncnc2[nH]ccc12 [tofacitinib citrate, (3R,4R)-4-methyl-3-(methyl-7H-pyrrolo[2,3-d]pyrimidin-4-ylamino)-β-oxo-1-piperidinepropanenitrile, 2-hydroxy-1,2,3-propanetricarboxylate (1:1)]
- C-Peptide (0.8-3.85) (week 4, 8 mg BID): 2.66
- IA2 Ab (Islet cell Ab Screen) (<0.8) (week 4, 8 mg BID): 43.8
- Insulin (2-19.6) (week 4, 8 mg BID): 17.1
- Insulin Auto Ab (<0.4) (week 4, 8 mg BID): 7.2
- C-Peptide (0.8-3.85) (week 9, 8 mg BID): 1.5
- HgbA1C (week 9, 8 mg BID): 7.2
- Insulin (2-19.6) (week 9, 8 mg BID): 7.8
- C-Peptide (0.8-3.85) (week 10, 8 mg BID): 4.7
- IA2 Ab (Islet cell Ab Screen) (<0.8) (week 10, 8 mg BID): >50
- Insulin (2-19.6) (week 10, 8 mg BID): 34.5
- Insulin Auto Ab (<0.4) (week 10, 8 mg BID): 64
- C-Peptide (0.8-3.85) (week 13, 8 mg BID): 1.43
- Glucose (week 13, 8 mg BID): 104
- IA2 Ab (Islet cell Ab Screen) (<0.8) (week 13, 8 mg BID): 46.2
- Insulin Auto Ab (<0.4) (week 13, 8 mg BID): 6.1
- Islet Cell Ab Titers (week 13, 8 mg BID): 320
- C-Peptide (0.8-3.85) [1]: 1.79
- GAD-65 (<5) [1]: <5
- Glucose [1]: 126
- HgbA1C [1]: 6.1
- IA2 Ab (Islet cell Ab Screen) (<0.8) [1]: 37.7
- Insulin (2-19.6) [1]: 12
- Insulin Auto Ab (<0.4) [1]: 6.6
- Islet Cell Ab Titers [1]: 80
- Glucose [2]: 210
- HgbA1C [2]: 6.1
- Insulin (2-19.6) [2]: 24.8
- Insulin Auto Ab (<0.4) [2]: 4
- Islet Cell Ab Titers [2]: negative
- Insulin Auto Ab (<0.4) [3]: 5.3
- Islet Cell Ab Titers [3]: 20
- C-Peptide (0.8-3.85) [4]: 2.19
- GAD-65 (<5) [4]: <5
- Glucose [4]: 93
- IA2 Ab (Islet cell Ab Screen) (<0.8) [4]: 47.3
- Insulin (2-19.6) [4]: 12
- Insulin Auto Ab (<0.4) [4]: 5
- Islet Cell Ab Titers [4]: negative
- C-Peptide (0.8-3.85) [5]: 1.34
- Glucose [5]: 85
- HgbA1C [5]: 6.2
- IA2 Ab (Islet cell Ab Screen) (<0.8) [5]: 47.7
- Insulin (2-19.6) [5]: 5.4
- Insulin Auto Ab (<0.4) [5]: 4.6
- Islet Cell Ab Titers [5]: 20
- C-Peptide (0.8-3.85) [6]: 2.74
- GAD-65 (<5) [6]: <5
- Glucose [6]: 143
- HgbA1C [6]: 6.3
- IA2 Ab (Islet cell Ab Screen) (<0.8) [6]: 43.8
- Insulin (2-19.6) [6]: 34.3
- Insulin Auto Ab (<0.4) [6]: 4.2
- C-Peptide (0.8-3.85) [7]: 3.17
- IA2 Ab (Islet cell Ab Screen) (<0.8) [7]: 46.5
- Insulin (2-19.6) [7]: 31.1
- Insulin Auto Ab (<0.4) [7]: 2.4
- Islet Cell Ab Titers [7]: 20
- HgbA1C [8]: 6.9
- IA2 Ab (Islet cell Ab Screen) (<0.8) [8]: 17
- Insulin Auto Ab (<0.4) [8]: 2.1
- Islet Cell Ab Titers [8]: negative
- C-Peptide (0.8-3.85) [9]: 2.73
- HgbA1C [9]: 6.5
- IA2 Ab (Islet cell Ab Screen) (<0.8) [9]: 35.7
- Insulin (2-19.6) [9]: 25
- Insulin Auto Ab (<0.4) [9]: 0.9
- Islet Cell Ab Titers [9]: negative
- C-Peptide (0.8-3.85) [10]: 2.14
- GAD-65 (<5) [10]: 66
- Glucose [10]: 97
- HgbA1C [10]: 6.5
- IA2 Ab (Islet cell Ab Screen) (<0.8) [10]: 30
- Insulin (2-19.6) [10]: 14.8
- Insulin Auto Ab (<0.4) [10]: 0.8
- Islet Cell Ab Titers [10]: negative
- C-Peptide (0.8-3.85) [11]: 5.21
- GAD-65 (<5) [11]: 70
- Glucose [11]: 168
- HgbA1C [11]: 6.8
- IA2 Ab (Islet cell Ab Screen) (<0.8) [11]: 25.9
- Insulin (2-19.6) [11]: 47.3
- Insulin Auto Ab (<0.4) [11]: 1
- Islet Cell Ab Titers [11]: negative
- C-Peptide (0.8-3.85) [12]: 4.3
- GAD-65 (<5) [12]: 15
- Glucose [12]: 160
- HgbA1C [12]: 6.2
- IA2 Ab (Islet cell Ab Screen) (<0.8) [12]: 39.4
- Insulin (2-19.6) [12]: 37.2
- Insulin Auto Ab (<0.4) [12]: 0.9
- Islet Cell Ab Titers [12]: negative
- C-Peptide (0.8-3.85) [13]: 1.38
- GAD-65 (<5) [13]: 7
- HgbA1C [13]: 6.5
- IA2 Ab (Islet cell Ab Screen) (<0.8) [13]: 38.8
- Insulin (2-19.6) [13]: 7.7
- Insulin Auto Ab (<0.4) [13]: 0.9
- Islet Cell Ab Titers [13]: negative
- C-Peptide (0.8-3.85) [14]: 1.22
- GAD-65 (<5) [14]: <5
- Glucose [14]: 112
- HgbA1C [14]: 6.3
- IA2 Ab (Islet cell Ab Screen) (<0.8) [14]: 39.4
- Insulin (2-19.6) [14]: 6.4
- Insulin Auto Ab (<0.4) [14]: 1.7
- Islet Cell Ab Titers [14]: negative
- C-Peptide (0.8-3.85) [15]: 1.33
- GAD-65 (<5) [15]: <5
- Glucose [15]: 113
- HgbA1C [15]: 6.2
- IA2 Ab (Islet cell Ab Screen) (<0.8) [15]: 39.2
- Insulin (2-19.6) [15]: 6.6
- Insulin Auto Ab (<0.4) [15]: 0.7
- Islet Cell Ab Titers [15]: negative
- C-Peptide (0.8-3.85) [16]: 1.61
- GAD-65 (<5) [16]: <5
- Glucose [16]: 85
- HgbA1C [16]: 6.4
- IA2 Ab (Islet cell Ab Screen) (<0.8) [16]: 44.5
- Insulin (2-19.6) [16]: 5.6
- Insulin Auto Ab (<0.4) [16]: 0.5
- Islet Cell Ab Titers [16]: negative
- C-Peptide (0.8-3.85) [17]: 2.81
- GAD-65 (<5) [17]: <5
- Glucose [17]: 230
- HgbA1C [17]: 6.9
- IA2 Ab (Islet cell Ab Screen) (<0.8) [17]: 46
- Insulin (2-19.6) [17]: 24.1
- Insulin Auto Ab (<0.4) [17]: 0.5
- Islet Cell Ab Titers [17]: negative
- C-Peptide (0.8-3.85) [18]: 1.68
- GAD-65 (<5) [18]: 105
- Glucose [18]: 278
- HgbA1C [18]: 8.1
- IA2 Ab (Islet cell Ab Screen) (<0.8) [18]: 6.5
- Insulin (2-19.6) [18]: 6.1
- Insulin Auto Ab (<0.4) [18]: <0.4
- Islet Cell Ab Titers [18]: negative
- C-Peptide (0.8-3.85) [19]: 2.88
- GAD-65 (<5) [19]: 131
- Glucose [19]: 148
- HgbA1C [19]: 7.8
- IA2 Ab (Islet cell Ab Screen) (<0.8) [19]: 13.1
- Insulin (2-19.6) [19]: 47.8
- Insulin Auto Ab (<0.4) [19]: <0.4
- Islet Cell Ab Titers [19]: negative
- C-Peptide (0.8-3.85) [20]: 2.36
- GAD-65 (<5) [20]: 48
- Glucose [20]: 148
- HgbA1C [20]: 7.1
- IA2 Ab (Islet cell Ab Screen) (<0.8) [20]: 25.6
- Insulin (2-19.6) [20]: 33.7
- Insulin Auto Ab (<0.4) [20]: 0.5
- Islet Cell Ab Titers [20]: negative
- C-Peptide (0.8-3.85) [21]: 1.41
- GAD-65 (<5) [21]: 24
- Glucose [21]: 170
- HgbA1C [21]: 6.9
- IA2 Ab (Islet cell Ab Screen) (<0.8) [21]: 26.5
- Insulin (2-19.6) [21]: 14.3
- Insulin Auto Ab (<0.4) [21]: 0.7
- Islet Cell Ab Titers [21]: 20

Source: patent US10759865B2, “Treatment of diabetes mellitus” (priority 2017, dated 2020)
